System: GDNF release from C6 glioma cells
Experiment: GDNF in-situ ELISA in C6 glioma cells
Assay type: cell-based
Settings: 10 μM compound, 48-hour incubation, fold over control release, corrected for pre-treatment release
Protocol: The GDNF Emax Immunoassay System from Promega (Madison, Wis.) was used to determine small molecule induced GDNF release from C6 glioma cells (ATCC, Manassas, Va.) with the following protocol. A 96-well ELISA plate was sterilized with UV for 30 minutes. The plate was coated with 100 μl/well of the anti-GDNF monoclonal antibody solution in carbonate coating buffer prepared per the manufacturer's instructions, and incubated overnight at 4° C. The antibody coating buffer was removed from the plate, which was then blocked according to the instructions in the kit. The plate was then incubated with 200 μl/well complete growth medium ([…], 5% FBS, 1% penicillin/streptomycin) for 2×1 h at rt to remove residue of the blocking buffer. After these washes were complete, fresh culture media was added to the wells. C6 cells were seeded at a density of 11,000 cells/well, with a total volume of approximately 150 μl in each well. The plate was incubated at 37° C. in an atmosphere containing 5% CO2. After 24 hours, complete growth medium was replaced with low serum medium (98.5% DMEM, 0.5% FBS, 1% penicillin/streptomycin) and the plate was incubated overnight for cellular synchronization. On the following day, cells were treated with experimental compounds for the indicated time. We used 10 μM concentrations of the tested compounds during a 48-hour incubation. Simultaneously with initiation of treatment, cells were removed from pre-treatment control wells with 5×200 μL washes of TBST (to control for basal GDNF release before the treatment period), and low-serum medium was added to these wells. 6 hours prior to stopping treatment with experimental compounds, the GDNF standard was added to the plate per the manufacturer's instructions. To terminate the treatment, the plate was washed extensively with 200 μl/well TBST washing buffer 5 times, which removed the cells. GDNF release for each well was measured according to GDNF Emax Immunoassay system instructions, and a plate reader was used to measure absorbance at 450 nm. Total GDNF release is calculated from the standard curve using Microsoft Excel. The listed values in Table 1 are presented as fold-increase of release of GDNF over control release of GDNF, corrected for pre-treatment release by subtracting from all values the mean amount of GDNF released in pre-treatment control wells. Statistical significance was determined using the Student's t-test.

Compound | Fold-Increase of GDNF Concentration [fold]
CCC1CC2C=CC1N(CCc1c[nH]c3ccc(OC)cc13)C2 (racemic) [Compound 12c, endo-7-ethyl-2-[2-(5-methoxy-1H-indol-3-yl)ethyl]-2-azabicyclo [2.2.2]oct-5-ene] | 2.1 ± 0.1

Same assay, conditions: C6 glioma, 48 h, 10 μM compound, 48-hour incubation, fold over control release, corrected for pre-treatment release, read-out: Fold-Increase of GDNF Concentration

Compound | fold induction at 10 µM
CCC1CC2C=CC1N(CCc1c[nH]c3ccc(OC)cc13)C2 (racemic) [Compound 10b, exo-7-ethyl-2-[2-(5-methoxy-1H-indol-3-yl)ethyl]-2-azabicyclo[2.2.2]oct-5-ene] | 2.2 ± 0.2
CCC1CC2C=CC1N(CCCc1c[nH]c3ccccc13)C2 (racemic) [Compound 12b, endo-2-[3-(1H-indol-3-yl)propyl]-7-ethyl-2-azabicyclo [2.2.2] oct-5-ene] | 1.5
CCOC(=O)c1[nH]c2ccccc2c1CCN1CC2C=CC1C(CC)C2 (racemic) [Compound 12d, endo-ethyl-3-[2-(7-ethyl-2-azabicyclo[2.2.2]oct-5-en-2-yl)ethyl]-1H-indole-2-carboxylate] | 1.5

System: GDNF release by C6 glioma cells
Experiment: GDNF release by conventional ELISA in conditioned media of C6 glioma cells
Assay type: cell-based
Settings: 10 μM compound, 48 h, 0.1% DMSO vehicle, representative experiment
Text: Conventional ELISAs were used to determine compound-induced increases of GDNF concentration in conditioned media of C6 glioma cells, and have afforded increased sensitivity compared to in-situ ELISA in our hands. C6 cells were purchased from ATCC (Manassas, Va.) at passage 37 and were used between passages 41-46. This requirement for a narrow range of passages is based on an observed decrease in magnitude of GDNF release with age of the cell line, and is consistent with reported behavior of C6 cells. All incubations were conducted at 37° C. in a humidified atmosphere containing 5% CO2. GDNF release was measured for each compound in 3 independent experiments. Briefly, C6 cells were seeded into sterile 12-well culture plates (Falcon) at a density of 300,000 cells per well and were recovered for 24 h in 1mL complete growth medium (94% high glucose DMEM, 5% FBS, 1% penicillin/streptomycin). Wells were then washed with 1mL sterile DPBS and were incubated for an additional 24 h with 0.5 mL low-serum medium (98.5% high glucose DMEM, 0.5% FBS, 1% penicillin/streptomycin). On the following day, experimental compounds or DMSO vehicle control were added each to duplicate wells in an additional 0.5 mL of low-serum medium. The final concentration of each compound was 10 μM in 1mL low-serum medium containing 0.1% DMSO. Plates were incubated with compounds and vehicle control for 48 h. Conditioned media were then collected from each well and GDNF concentrations were measured in triplicate on 96-well ELISA plates using the GDNF Emax Immunoassay System from Promega (Madison, Wis.) according to the manufacturer's instructions. A Bio-Tek H1MF plate reader (Burlington, Vt.) was used to measure absorbance from the resulting colorimetric reaction. Total GDNF release for each compound was calculated from the standard curve using Microsoft Excel. Data are normalized to the vehicle control and are thus presented as fold increase of GDNF concentration in experimental wells over that of the vehicle control. Each reported compound afforded a statistically significant increase of GDNF release over the DMSO control in each of three independent experiments conducted on separate days unless otherwise noted. Statistical significance within each experiment was determined by ANOVA followed by Tukey's post-hoc analysis using GraphPad Prism. Because of the naturally high variability of GDNF release values between experiments, data presented herein are intra-assay means from a representative experiment ±intra-assay standard error of the mean (SEM) calculated from biological replicates. Cytotoxicity for each compound was below 20% as measured by LDH levels in conditioned media (Cytotox 96, Promega).
All results (Table 2) represent fold-increase of GDNF release by C6 glioma cells treated with the indicated compound for 48 hours, normalized to the vehicle control. Results are presented from a representative experiment and were determined to be statistically significant (ANOVA) compared to the vehicle control.

Compound | GDNF Increase ± SEM (fold/vehicle control)
6-ethyl-2-(2-(5-fluoro-1H-indol-3-yl)ethyl)-2-azabicyclo[2.2.2]oct-5-ene [Compound 91] | 13.61 ± 0.62
C1=CC2C(Cc3ccccc3)CC1CN2CCc1c[nH]c2ccccc12 (racemic) [Compound 77, exo-2-(2-(1H-indol-3-yl)ethyl)-7-benzyl-2-azabicyclo[2.2.2]oct-5-ene] | 13.22 ± 0.08
CCCC1CC2C=CC1N(CCc1c[nH]c3ccc(F)cc13)C2 (racemic) [Compound 78, endo-2-(2-(5-fluoro-1H-indol-3-yl)ethyl)-7-propyl-2-azabicyclo[2.2.2]oct-5-ene] | 14.39 ± 0.51
CCCCC1CC2C=CC1N(CCc1c[nH]c3ccccc13)C2 (racemic) [Compound 84, exo-2-(2-(1H-indol-3-yl)ethyl)-7-butyl-2-azabicyclo[2.2.2]oct-5-ene] | 12.65 ± 0.66
CCC1CC2C=CC1N(CCc1c[nH]c3cccc(F)c13)C2 (racemic) [Compound 87, endo-7-ethyl-2-(2-(4-fluoro-1H-indol-3-yl)ethyl)-2-azabicyclo[2.2.2]oct-5-ene] | 10.87 ± 0.84
CCC1CC2C=CC1N(CCc1c[nH]c3c(F)cccc13)C2 (racemic) [Compound 89, endo-7-ethyl-2-(2-(7-fluoro-1H-indol-3-yl)ethyl)-2-azabicyclo[2.2.2]oct-5-ene] | 14.71 ± 0.11
CCC1CC2C=CC1N(CCc1csc3ccccc13)C2 (racemic) [Compound 90, endo-2-(2-(benzo[b]thiophen-3-yl)ethyl)-7-ethyl-2-azabicyclo[2.2.2]oct-5-ene] | 11.86 ± 0.01
CCC1CC2C=CC1N(CCCc1c[nH]c3ccccc13)C2 (stereo not drawn) [Compound 81, exo-2-(3-(1H-indol-3-yl)propyl)-7-ethyl-2-azabicyclo[2.2.2]oct-5-ene] | 12.55 ± 0.05

Same assay, conditions: C6 glioma, 48 h, 10 μM compound, 0.1% DMSO vehicle, representative experiment, read-out: GDNF Increase ± SEM (fold/vehicle control)

Compound | fold induction at 10 µM
CCC1CC2C=CC1N(CCc1c[nH]c3c(F)cccc13)C2 (racemic) [Compound 69, exo-7-ethyl-2-(2-(7-fluoro-1H-indol-3-yl)ethyl)-2-azabicyclo [2.2.2]oct-5-ene] | 12.13 ± 0.01
CCC1CC2C=CC1N(CCc1c[nH]c3cccc(F)c13)C2 (racemic) [Compound 70, exo-7-ethyl-2-(2-(4-fluoro-1H-indol-3-yl)ethyl)-2-azabicyclo[2.2.2]oct-5-ene] | 15.8 ± 0.65
CCC1CC2C=CC1N(CCc1c[nH]c3cc(F)ccc13)C2 (racemic) [Compound 71, exo-7-ethyl-2-(2-(6-fluoro-1H-indol-3-yl)ethyl)-2-azabicyclo[2.2.2]oct-5-ene] | 16.5 ± 0.3
CCC1CC2C=CC1N(CCc1c[nH]c3ccc(F)cc13)C2 (racemic) [Compound 72, exo-7-ethyl-2-(2-(5-fluoro-1H-indol-3-yl)ethyl)-2-azabicyclo[2.2.2]oct-5-ene] | 16.2 ± 0.41
CCC1CC2C=CC1N(CCc1csc3ccccc13)C2 (racemic) [Compound 73, exo-2-(2-(benzo[b]thiophen-3-yl)ethyl)-7-ethyl-2-azabicyclo[2.2.2]oct-5-ene] | 9.87 ± 0.22
CCCC1CC2C=CC1N(CCc1c[nH]c3ccccc13)C2 (racemic) [Compound 75, endo-2-(2-(1H-indol-3-yl)ethyl)-7-propyl-2-azabicyclo [2.2.2]oct-5-ene] | 14.8 ± 0.85
C1=CC2C(Cc3ccccc3)CC1CN2CCc1c[nH]c2ccccc12 (racemic) [Compound 76, endo-2-(2-(1H-indol-3-yl)ethyl)-7-benzyl-2-azabicyclo[2.2.2]oct-5-ene] | 12.8 ± 0.85
CCCC1CC2C=CC1N(CCc1c[nH]c3ccc(F)cc13)C2 (racemic) [Compound 79, exo-2-(2-(5-fluoro-1H-indol-3-yl)ethyl)-7-propyl-2-azabicyclo[2.2.2]oct-5-ene] | 14.6 ± 0.21
C1=CC2C(Cc3cccnc3)CC1CN2CCc1c[nH]c2ccccc12 (racemic) [Compound 80, exo-2-(2-(1H-indol-3-yl)ethyl)-7-(pyridin-3-ylmethyl)-2-azabicyclo[2.2.2]oct-5-ene] | 7.02 ± 1.31
CCC1CC2C=CC1N(CCc1cn(S(=O)(=O)c3ccc(C)cc3)c3ccccc13)C2 (racemic) [Compound 82, exo-7-ethyl-2-(2-(1-tosyl-1H-indol-3-yl)ethyl)-2-azabicyclo[2.2.2]oct-5-ene] | 13.6 ± 1.41
CCCCC1CC2C=CC1N(CCc1c[nH]c3ccccc13)C2 (racemic) [Compound 83, endo-2-(2-(1H-indol-3-yl)ethyl)-7-butyl-2-azabicyclo[2.2.2]oct-5-ene] | 12.8 ± 0.5
Fc1ccc2[nH]cc(CCN3CC4C=CC3C(Cc3ccccc3)C4)c2c1 (racemic) [Compound 85, exo-7-benzyl-2-(2-(5-fluoro-1H-indol-3-yl)ethyl)-2-azabicyclo[2.2.2]oct-5-ene] | 13.2 ± 2.03
C1=CC2C(COCc3ccccc3)CC1CN2CCc1c[nH]c2ccccc12 (racemic) [Compound 86, endo-2-(2-(1H-indol-3-yl)ethyl)-7-(benzyloxymethyl)-2-azabicyclo[2.2.2]oct-5-ene] | 13.8 ± 2.01
CCCC1CC2C=CC1N(CCc1c[nH]c3ccccc13)C2 (stereo not drawn) [Compound 74, exo-2-(2-(1H-indol-3-yl)ethyl)-7-propyl-2-azabicyclo[2.2.2]oct-5-ene] | 7.11 ± 1.17

Reference: patent publication US9988377B2, “Small molecule inducers of GDNF as potential new therapeutics for neuropsychiatric disorders” (THE TRUSTEES OF COLUMBIA UNIVERSITY IN THE CITY OF NEW YORK, priority 2011, dated 2018)
